Measurements: US8821861B2, “Fibrin sealant” (The Board of Trustees of the University of Illinois, priority 2007, dated 2014)
“Also recorded” adds a separate entry of the source.

How the values were obtained:
[1] = target: T1, fibrin clots formed from purified human fibrinogen and human α thrombin (Homo sapiens, UniProt P02671+P02675+P02679); experiment: Fibrin clot turbidity (A405), purified fibrinogen clotted with thrombin in microplates; type: biochemical; conditions: up to 20 U/mL unfractionated heparin, 500 μM polyP
T1 construct: purchased Enzyme Research Laboratories (South Bend, Ind.)
T1 sequence (P02671 20-644 isoform P02671-2 limits assumed): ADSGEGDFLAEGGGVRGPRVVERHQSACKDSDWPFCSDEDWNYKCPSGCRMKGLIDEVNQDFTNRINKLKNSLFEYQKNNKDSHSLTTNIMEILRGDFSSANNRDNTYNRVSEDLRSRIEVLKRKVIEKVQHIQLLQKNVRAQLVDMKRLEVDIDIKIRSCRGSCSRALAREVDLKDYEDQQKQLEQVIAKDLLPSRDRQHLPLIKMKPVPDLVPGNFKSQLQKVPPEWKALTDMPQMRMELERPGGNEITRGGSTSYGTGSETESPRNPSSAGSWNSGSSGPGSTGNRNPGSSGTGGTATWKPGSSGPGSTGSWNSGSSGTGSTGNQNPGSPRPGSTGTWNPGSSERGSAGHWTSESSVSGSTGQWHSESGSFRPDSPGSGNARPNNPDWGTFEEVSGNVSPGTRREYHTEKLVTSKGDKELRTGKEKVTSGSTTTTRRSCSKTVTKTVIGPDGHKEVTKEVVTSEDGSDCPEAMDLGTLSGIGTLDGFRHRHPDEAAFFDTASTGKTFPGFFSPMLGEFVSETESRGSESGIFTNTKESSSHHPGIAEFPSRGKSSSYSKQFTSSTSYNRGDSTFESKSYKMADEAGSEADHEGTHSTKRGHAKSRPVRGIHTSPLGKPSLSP
T1 sequence (P02675 31-491): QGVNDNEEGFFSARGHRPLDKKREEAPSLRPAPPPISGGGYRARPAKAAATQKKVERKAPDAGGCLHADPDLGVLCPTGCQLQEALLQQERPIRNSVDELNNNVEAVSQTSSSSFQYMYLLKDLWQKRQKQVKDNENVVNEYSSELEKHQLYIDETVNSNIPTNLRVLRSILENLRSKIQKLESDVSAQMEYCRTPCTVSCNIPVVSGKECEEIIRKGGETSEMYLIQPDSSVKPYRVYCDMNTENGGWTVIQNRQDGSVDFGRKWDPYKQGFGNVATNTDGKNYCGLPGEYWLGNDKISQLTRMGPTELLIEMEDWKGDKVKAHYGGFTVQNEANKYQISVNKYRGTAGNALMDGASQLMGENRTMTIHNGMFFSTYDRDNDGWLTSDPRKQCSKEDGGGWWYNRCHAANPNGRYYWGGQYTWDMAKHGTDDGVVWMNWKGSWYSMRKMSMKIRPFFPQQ
T1 sequence (P02679 27-437 isoform P02679-2 limits assumed): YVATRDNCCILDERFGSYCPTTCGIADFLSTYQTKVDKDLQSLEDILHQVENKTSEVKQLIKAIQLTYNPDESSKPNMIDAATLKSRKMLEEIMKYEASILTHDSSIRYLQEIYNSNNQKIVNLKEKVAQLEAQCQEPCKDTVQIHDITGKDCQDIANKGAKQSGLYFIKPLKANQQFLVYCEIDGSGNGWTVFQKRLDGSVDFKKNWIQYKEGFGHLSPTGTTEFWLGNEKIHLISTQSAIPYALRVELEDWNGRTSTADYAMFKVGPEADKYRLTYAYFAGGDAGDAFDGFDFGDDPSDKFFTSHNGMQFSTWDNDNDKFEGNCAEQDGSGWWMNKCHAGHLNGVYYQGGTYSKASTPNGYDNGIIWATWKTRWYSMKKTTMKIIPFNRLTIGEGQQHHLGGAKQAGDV

[2] = target: T1, fibrin clots formed from purified human fibrinogen and human α thrombin; experiment: as above; type: biochemical; conditions: for polyP concentration exerting maximal effect on turbidity: 2.6 mg/mL citrate-free fibrinogen, 1 nM thrombin (FIG. 8)
Protocol: The in vitro studies reported here utilize a microplate-based method to evaluate the formation of fibrin clots, which are prepared by mixing together purified fibrinogen and thrombin. Once fibrinogen is cleaved to fibrin, the fibrin monomers spontaneously polymerize to yield a three-dimensional gel, or clot. These fibrin polymers scatter visible light, resulting in increased turbidity which can monitored spectrophotometrically to detect clotting.
Fibrin clots were formed in 96-well polystyrene microplates (Corning Inc., Corning, N.Y.) by first preincubating fibrinogen with polyP in TBS plus the indicated CaCl2 concentrations. (Preincubations of fibrinogen with calcium ions were for 15 minutes unless otherwise stated.) Thrombin in TBS plus the same concentration of CaCl2 was then added to trigger clot formation. Reactant concentrations were typically 2.6 mg/mL fibrinogen, 62.5 pM to 8 nM thrombin, 0 to 8 mM polyP, and 0 to 5 mM CaCl2 in a total volume of 200 μL. In some studies, 0 to 10 U/mL unfractionated heparin or 1 mM iodoacetamide were also included. Clotting was evaluated by monitoring the change in turbidity (A405) for varying times (typically, 1 hour) at room temperature using a Spectramax microplate reader (Molecular Devices Corporation, Sunnyvale, Calif.). […] Final turbidities (A405) of fibrin clots were typically quantified after the clots had matured for 60 minutes.

human plasma = conditions: previous studies [20]; cited from earlier work
fibrin fibrils [3] = target: T2, fibrin fibrils (Homo sapiens, UniProt P02671+P02675+P02679); experiment: Fibril size determination (relative mass-length ratio from wavelength scan); type: biochemical; conditions: 1 mM polyP; 2.6 mg/mL fibrinogen, 3 nM thrombin, 2.5 mM calcium ions
T2 construct: purchased Enzyme Research Laboratories (South Bend, Ind.)
T2 sequence (P02671 20-644 isoform P02671-2 limits assumed): T1 sequence (P02671 20-644 isoform P02671-2 limits assumed)
T2 sequence (P02675 31-491): T1 sequence (P02675 31-491)
T2 sequence (P02679 27-437 isoform P02679-2 limits assumed): T1 sequence (P02679 27-437 isoform P02679-2 limits assumed)
Source text: Previous studies of fibrin clot structure have shown that the final optical density of fibrin clots is primarily a function of the thickness of the fibrils formed. It is possible to estimate the mass-length ratios of fibrin fibrils by measuring the optical density of clots at a series of wavelengths of light, using a suitable mathematical analysis of the data. Such analyses of fibrin clots were made by mixing fibrinogen and thrombin in the presence of calcium ions and varying concentrations of polyP, in order to determine the effect of polyP on the mass-length ratio of the fibrils (FIG. 5(A)). […] When fibrin clots formed in the presence of calcium ions and varying polyP concentrations were visualized using scanning electron microscopy, the fibrin fibrils had increased thickness as the polyP concentration increased (FIGS. 5(C-E)).
Relative fibril mass to length ratios were determined using a modification of the method of Carr and Gabriel for clots with high turbidity. Briefly, fibrin clots were allowed to mature for 2 hours after thrombin addition, after which the absorbance was scanned from 400 to 800 nm on a Spectramax microplate reader. A plot of 1/τ*λ^3(y axis) versus 1/λ^2 (x axis) was used to determine the y intercept, the inverse of which is proportional to the mass-length ratio of the fibers. […]

fibrin fibrils [4] = target: T2, fibrin fibrils; experiment: Scanning electron microscopy of fibrin clots (fibril thickness); type: biochemical; conditions: 2.6 mg/mL fibrinogen, 2.5 mM CaCl2, 3 nM thrombin, without polyP 26.5±0.7 nm
Protocol: Fibrin clots formed as described above for turbidity measurements were allowed to mature for 2 hours after thrombin addition. Clots were washed 4 times in 0.1 M cacodylate, fixed in Karnovsky's gluteraldehyde solution overnight, and then processed by stepwise ethanol gradient, critical point drying, and sputter coating with gold palladium. Clots were observed and photographed in six different representative areas using a scanning electron microscope.

[5] = target: T3, fibrin cross-linking by factor XIIIa (Homo sapiens, UniProt P02671+P02675+P02679); experiment: Fibrin cross-link formation (SDS-PAGE); type: biochemical; conditions: 37° C., data not shown
T3 construct: changing the rate or extent of fibrin cross-linking by factor XIIIa; purchased Enzyme Research Laboratories (South Bend, Ind.)
T3 sequence (P02671 20-644 isoform P02671-2 limits assumed): T1 sequence (P02671 20-644 isoform P02671-2 limits assumed)
T3 sequence (P02675 31-491): T1 sequence (P02675 31-491)
T3 sequence (P02679 27-437 isoform P02679-2 limits assumed): T1 sequence (P02679 27-437 isoform P02679-2 limits assumed)
Protocol: Rates of a and y cross-link formation were studied in clotting reactions carried out as described for turbidity measurements using purified fibrinogen, except that fibrin clots were formed in polypropylene tubes at 37° C. and reactions were stopped at various times by adding an equal volume of 2×SDS sample buffer (100 mM Tris-HCl, 1 mM dithiothreitol, 4% sodium dodecyl sulfate (SDS), 0.02% bromophenol blue, 20% glycerol, pH 6.8) with immediate boiling at 95° C. for 5 minutes. Samples (10 μL) were then subjected to SDS-PAGE using 7.5% polyacrylamide gels and stained with Gelcode (Pierce, Rockford, Ill.) according to the manufacturer's directions.

[6] = target: T4, fibrin clots / human plasmin (Homo sapiens, UniProt P02671+P02675+P02679); experiment: Fibrinolysis of fibrin clots by plasmin; type: biochemical; conditions: 1 mM polyP, 1 mg/mL fibrinogen, 2.5 mM CaCl2, 8 nM plasmin, 1 nM thrombin; clots without polyP lysed quickly
T4 construct: purchased Enzyme Research Laboratories (South Bend, Ind.)
T4 sequence (P02671 20-644 isoform P02671-2 limits assumed): T1 sequence (P02671 20-644 isoform P02671-2 limits assumed)
T4 sequence (P02675 31-491): T1 sequence (P02675 31-491)
T4 sequence (P02679 27-437 isoform P02679-2 limits assumed): T1 sequence (P02679 27-437 isoform P02679-2 limits assumed)
Protocol: FIG. 6 is a graph of the time course of fibrinolysis of fibrin clots. Fibrinogen (1 mg/mL) was preincubated for 15 minutes in the presence of 2.5 mM CaCl2 with 1 mM polyP (▾) or without polyP (O), after which 8 nM plasmin was added followed immediately by 1 nM thrombin. Fibrin clots were allowed to form for 30 minutes, after which their turbidities were measured. The data are plotted as A405 values normalized to the initial A405 value for each curve.
In these experiments, clots were formed by mixing purified human fibrinogen, human plasmin, and human thrombin in the presence of calcium ions, with or without polyP. Clot lysis was quantified by measuring the decrease in optical density over time (following a 30 minute initial clot formation). […] (FIG. 6)

spleen surface wounds = experiment: Porcine splenic trauma model of surgical bleeding; type: in vivo, pig
Protocol: In preliminary experiments, the ability of polyP to enhance the performance of a fibrin sealant composed of purified fibrinogen and thrombin was evaluated. The fibrinogen component of the experimental fibrin sealant was pre-mixed with calcium ions and polyP, while control fibrinogen preparations were pre-mixed with calcium ions without polyP. Shallow surface wounds were then made on the surface of the spleen of anesthetized pigs, after which 0.3 mL each of the fibrinogen and thrombin solutions were applied to the wound surface and allowed to react with each other. Including polyP in the fibrinogen solution shortened the time to cessation of bleeding in this model: 9.8±1.0 minutes with polyP, but 12.3±1.0 minutes without polyP (mean±SEM). Adding polyP to the fibrinogen solution also changed the appearance of fibrin clots formed on the wound surfaces.
Young adult pigs weighing 20-35 kg were anesthetized using intramuscular teletamine/zolazepam/glycopyrolate, followed by intubation and maintenance with inhaled isoflurane. A ventral midline laparotomy was performed and the spleen was externalized. Shallow (approximately 1 mm deep) oval surface wounds measuring approximately 3×5 mm were made using a Metzenbaum scissors. […] Time to cessation of bleeding was assessed visually. […]

For heparin [reference compound], the “effect of added heparin on the polyP effect on turbidity” value [1] was “did not reduce the effect of polyP on turbidity”, the “magnitude of the turbidity increase relative to polyP” value ([2]; heparin 0 to 10 units/mL, data not shown) was “markedly lower than that observed with polyP” and the “effect on fibrin turbidity” value ([2]; heparin examined from 0 to 10 units/mL, data not shown) was “increased fibrin turbidity in a dose-dependent fashion”.

In the case of `NC(=O)CI` [iodoacetamide, reference compound], the “effect of iodoacetamide on the enhancement of final clot turbidity by polyP” value ([2]; transglutaminase inhibitor added to clotting mixtures, data not shown) is reported as “failed to antagonize the enhancement of final clot turbidity by polyP”.

In the case of Polyphosphate, the “effect on clotting time of human plasma” value (human plasma) is given as “shortens the clotting time of human plasma”, the “effect on clotting time when thrombin was added to plasma” value (human plasma) is given as “did not shorten clotting times” and the “mass-length ratio of fibrin fibrils compared to clots formed in the absence of polyP” value (fibrin fibrils [3]) is given as “more than three times larger”. The “mean fibril thickness (±standard error)” value (fibrin fibrils [4]; 100 μM polyP) was 33.6±1.0 nm, the “mean fibril thickness (±standard error)” value (fibrin fibrils [4]; 500 μM polyP) was 54.2±1.3 nm and the “mean fibril thickness (±standard error)” value (fibrin fibrils [4]; 1 mM polyP) was 73.4±1.5 nm. For the same compound, the “rate of formation of cross-linked fibrin chains” value [5] was “appeared to be the same with or without polyP; also recorded: failed to identify any impact of polyP”, the “resistance of clots to fibrinolysis” value [6] was “highly resistant to lysis by plasmin” and the “time to cessation of bleeding (mean±SEM)” value (spleen surface wounds; fibrin sealant, polyP in the fibrinogen solution, 0.3 mL each of fibrinogen and thrombin solutions on spleen wound, without polyP 12.3±1.0 minutes) was 9.8 ± 1.0 min. The “appearance of fibrin seals formed on the wound surfaces” value (spleen surface wounds; fibrinogen with polyP versus without polyP (FIG. 7)) was “more opaque”, the “polyP concentration exerting maximal effect on turbidity” value ([2]; 2 mM Ca2+) was 1 mM and the “polyP concentration exerting maximal effect on turbidity” value ([2]; 2.5 mM Ca2+) was 1 to 2 mM. The “polyP concentration exerting maximal effect on turbidity” value ([2]; 3 mM Ca2+) was 2 to 4 mM, the “polyP concentration exerting maximal effect on turbidity” value ([2]; 5 mM Ca2+) was 3 to 8 mM and the “polyP concentration giving optimal enhancement of final clot turbidity” value ([2]; expressed as phosphate monomer, 2.6 mg/mL fibrinogen, 8 nM thrombin, 2.5 mM calcium chloride (FIG. 3)) was “approximately 1 mM”. The “effect on turbidity of fibrin clots” value ([2]; in the absence of Ca2+) was “did not increase the turbidity of fibrin clots”, the “effect on final clot turbidity” value ([2]; mM Ca2+ present, regardless of the amount of thrombin added) was “markedly increased final clot turbidity” and the “effect on fibrin clot turbidity with added factor XIIIa” value ([2]; preactivated factor XIIIa added to the clotting mixtures, data not shown) was “still increased fibrin clot turbidity”. For the same compound, the “effect on thrombin clotting time” value ([2]; purified fibrinogen plus thrombin) was “lack of effect” and the “enhancement of final clot turbidity with factor XIIIa inhibitor” value ([2]; with or without 1 mM iodoacetamide, data not shown) was “approximately equally well in the presence or absence of iodoacetamide”.
